Assay results from patent publication US11638427B2, “Methods and compositions for altering secondary metabolites in plants” (Impello Biosciences, Inc, priority 2020, dated 2023).

Legend:
[1] = system: marijuana variety Lemon Creamsicle; assay: Foliar spray of CJ or MDJ on high-THC marijuana in greenhouse, cannabinoid analysis; assay type: in vivo, Cannabis spp.; conditions: 7.5 mM foliar spray every 14 days, four treatments
Description: Applicant's previous experiments investigated the effects of jasmonate-type elicitors MeJA, MDJ, and CJ on hemp (high fiber) and high-CBD, (low-THC) varieties of Cannabis. […] Here, the effects of MDJ and CJ application on a high-THC variety in a controlled environment was investigated. High-THC, low-CBD marijuana variety “Lemon Creamsicle” (LC), was grown in a greenhouse setting. LC was used as a plant model due to its historically consistent metabolite profile in the greenhouse environment, making it a stable, known, and reliable variety.
A four-block plant trial was implemented with a population of N=12 plants and treatment group sizes of n=4. The treatment and control groups were defined as follows: Control=water+0.1% TWEEN®-20 aqueous foliar spray, Treatment 1=[7.5 mM] CJ+0.1% TWEEN®-20 aqueous foliar spray, Treatment 2=[7.5 mM] MDJ+0.1% TWEEN®-20 aqueous foliar spray. A standardized concentration of [7.5 mM] for both CJ and MDJ applications was chosen due to its performance in Applicant's past research. All treatment solutions were prepared the day of the application in equal volumes from pre-measured quantities of the stock materials to ensure consistency, i.e., appropriate volumes of CJ or MDJ were combined with appropriate volumes of TWEEN®-20 for each experimental treatment, stored in a sealed centrifuge tube, and diluted in the appropriate amount of water immediately prior to application. Separate sprayers were used for each treatment and control sprays to avoid cross-contamination.
All plants in the trial were produced as asexual clone stock taken from the same mother plant at the same time to ensure homogeneity. All plants were rooted and grown in accordance with the production practices typical to this greenhouse operator prior to plant selection for the experiment. Due to the layout of the cultivation system, which features immovable hydroponic “pots” that house the plant throughout the entire flowering (i.e., reproductive) phase, all plants included in the experiment were selected from a set section of the greenhouse after final transplant into the hydroponic system and grouped in a complete randomized block design accordingly.
After defining the plants to include in the experiment, which were organized in two (2) rows of six (6) plants side-by-side in the hydroponic system, the experimental blocks were defined as groups of three plants, and a research randomizer tool (randomizer.org) was used to generate a randomized arrangement of plants in each group. Using a blocked design in this setting helped account for the immovable nature of the plants and the slight, if any, environmental differences (like natural sunlight, shading from other plants, and corner/edge effect) that existed in the small experimental area. Blocking the experimental arrangement also allowed for improved statistical analysis and resolution considering the small sample size and close proximity of the experimental plants.
After labelling each plant in the experiment with the appropriate group label (Control, T1 [CJ], or T2 [MDJ]), the plants were allowed to grow normally between treatment applications, which were performed every 14 days for a total of four (4) treatments throughout the flowering cycle, which lasted approximately eight (8) weeks. The first treatment occurred seven (7) days after the onset of the flowering cycle, which was dictated by day-length control. Care was taken with each treatment application to minimize overspray onto non-target neighboring plants, and physical barriers were temporarily installed between plants during treatment sprays to aid in this effort. These barriers were removed following treatment sprays when the foliage was no longer visibly wet from the treatment and/or control foliar sprays. […]

[2] = system: oyster mushroom; assay: Fungal plug growth on jasmonate-infused PDA plates; assay type: cell-based; conditions: all concentrations (1 mM, 4.25 mM, 10 mM) in PDA; 72 hours and 10 days
Description: (§1) MDJ (TCI, CAS No.: 24851-98-7) and CJ were infused into potato dextrose agar (PDA, VWR Cat No.: 90003-494) petri dishes (100×15 mm VWR, Cat No: 25384-094) at concentrations ranging from 1 mM, 4.25 mM, and 10 mM. Each treatment was prepared using a technical grade stock solution of pure chemical (CJ or MDJ) diluted with TWEEN®-20 (VWR, CAS No.: […]). Culturable oyster mushroom and seedling mold served to create fungal mycelial plugs using a sterile 1 mL pipette tip (Eppendorf, Cat No.: 022491458) held upside down. The tips were used to make circle excisions (i.e., fungal plugs) from a mycelial mat grown on PDA with no biochemical infusions. Fungal pugs were then transferred to PDA infused with varying concentrations of CJ or MDJ, and control plates (no CJ or MDJ infusion) to monitor fungal growth at room temperature over time.

[3] = system: seedling mold; assay: Fungal plug growth on jasmonate-infused PDA plates; assay type: cell-based, Trichoderma ghanense; conditions: all concentrations (1 mM, 4.25 mM, 10 mM) in PDA; 72 hours and 10 days
Description: as §1
To compare the efficacy of MDJ and MeJA at inhibiting the same seedling mold as used in the experiment above, a second experiment was conducted using PDA plates infused with either MDJ or MeJA at different concentrations. All plates were generated and inoculated as described above and incubated at room temperature under identical conditions. Shown in FIGS. 9A-9C are plates of seedling mold 72 hours post fungal inoculation. Control plates are shown on the top row, followed by concentrations of MeJA (left) and MDJ (right) in duplicate at 1 mM (FIG. 9A), 4.25 mM (FIG. 9B), and 10 mM (FIG. 9C). […] Subsequent sequence analysis identified the “seedling mold” as Trichoderma ghanense.

[4] = system: high-CBD hemp varieties Stormy Daniels and BaOX; assay: Field foliar applications of MDJ, MeJA and CJ on high-CBD hemp, cannabinoid analysis; assay type: in vivo, Cannabis spp.; conditions: 7.5 mM foliar, four applications every 14 days in flowering
Description: However, MDJ is not known to have any significant bioactivity in planta and is not an endogenously produced phytohormone in cannabis, so it was unknown whether MDJ would afford the same functionality as MeJA. Similarly, CJ has likewise been relatively under-investigated as a plant elicitor despite being a decarboxylation product of Jasmonic Acid. Here, the effect of MDJ and CJ were analyzed (in addition to MeJA) in order to determine any difference in the effect of these treatments on field-grown high-CBD hemp varieties.
A hemp field experiment was conducted during the flowering phase of plant development in a private research field located in North Carolina. Sixty (60) plants from two distinct plant variety populations, Stormy Daniels and BaOX were selected for the trial. Each group of 60 plants was randomly divided into three groups of 20 plants and labeled accordingly to indicate the treatment group (T1, T2, T3). All plants were cultivated identically and subjected to approximately the same environmental conditions. Control, untreated plants were taken from the same field. Plants were treated according to treatment group, and each treatment group was subjected to four (4) applications of its respective treatment, with the first treatments applied on what was considered to be the first day of the flowering phase and repeated then again every successive 14 days up until just prior to harvest. Treatments were as follows: Control group=Control, Treatment 1=MDJ, Treatment 2=MeJA, Treatment 3=CJ.
All treatments were prepared in a stock (concentrated, non-aqueous) form by Impello Biosciences in their lab in Loveland, Colo. and labelled respectively prior to the start of the experiment. All treatments were prepared at a high stock concentration that allowed dilution by the applicator with 2 liters of water to a final 7.5 mM concentration of active ingredient (i.e., MeJA, MDJ, or CJ) for each treatment; 15-mL centrifuge tubes were used as preparation and storage vessels for each of the treatments. Preparation of the stock solutions ensured that the applicator could store the solutions prior to use at 4° C. to minimize degradation and allow for dilution immediately prior to use. In the stock containers, 2 mL of TWEEN®-20 was added to each respective elicitor compound as an emulsifier in order to reach a final oil-in-water emulsion once diluted with a concentration of 7.5 mM active ingredient and 0.1% surfactant (i.e., TWEEN®-20) v/v.
Plants were grown to maturity and 5 plants from each treatment and control group were sampled on Sep. 23, 2019. Care was taken to ensure samples were similar in appearance and spatial location between plants to minimize unintended variance in sample quality. The apical cola for each plant was harvested, and specifically, the top 3″ of the main cola. Yield data was not collected in this study, but no obvious differences in plant size or appearance were noted. Samples were submitted for chemical analysis (Avazyme, Inc, NC).
All models were linear models fit with Group (treatment) as the independent variable and the response variable was the corresponding compound. Data was filtered and comparison between treatments were conducted using the emmeans package and Tukey HSD for post-hoc corrections. Statistical significance was defined by a level of significance of p<0.05 in the Tukey test. Total cannabinoids included CBN, Δ9-THC, CBDV, CBG, CBD, CBC, CBDA, CBGA, THCA, and THCV. Total THC and total CBD were calculated by accounting for the additional weight of the carboxyl group in the acidic forms and adding those to the neutral/non-acidic forms.

CC/C=C\CC1=C(C)CCC1=O [CJ, cis-jasmone]
CBGA average relative percent increase compared to the Control group [1]: 11.22% | THCA average relative percent increase compared to the Control group [1]: 1.13% | Total Cannabinoids average relative percent increase compared to the Control group [1]: 1.17% | Total THC average relative percent increase compared to the Control group [1]: 1.03% | Oyster mushroom fungal growth compared to control [2]: showed inhibition | seedling mold growth compared to control [3]: showed inhibition | CBDA increase relative to the control group [4]: 23.61% | THCA increase relative to the control group [4]: 27.23% | Total CBD increase relative to the control group [4]: 23.64% | Total Cannabinoids increase relative to the control group [4]: 22.92% | Total THC increase relative to the control group [4]: 27.09%
